System: Aβ40
Assay: Lowering of Aβ40 in brain of wild-type mice
Assay type: in vivo
Details: Mus musculus, po; female C57Bl/6J mice, 30 mg/kg per os, 4 h; brain Aβ40 as percentage of the vehicle group; read-out: Aβ40 (wt mice, brain)
Method: Lowering of Aβ40 in Brain of Wild-Type Mice:
Animals and Housing Conditions.
Animals were maintained in a 12/12 h light/dark cycle, with lights starting at 6 a.m., and experiments were conducted during the light phase, Animal housing and experimental procedures were in line with ethical and legal guidelines and were authorized by local veterinary authorities.
Female C57Bl/6J mice were treated with a dose of 30 mg/kg of the compounds, 3-4 animals per treatment group. The test compound was dissolved in 5% EtOH, 10% Solutol, and was applied per os at 10 mL/kg. After 4 h, the animals were sacrificed and brain and plasma were collected. The brain was cut into halves and immediately frozen on dry ice. Brain was used for measurement of Aβ40 and plasma was used for determination of compound exposure. […] Brain tissue was homogenized in 2% DEA buffer in a Roche MagnaLyser (20″, 4000 rpm) and subsequently centrifuged for 1 h at 100000 g. DEA was reduced to 0.2% in 50 mM NaCl and one-half of the DEA lysate was passed over an Oasis Solid phase extraction plate (Waters; cat. no. 186000679), which had been activated with MeOH and equilibrated in dH2O (1 mL each). After washes in 10% and 30% MeOH (1 mL each), the Aβ-peptides were eluted in 0.8 mL of 2% NH4OH in 90% MeOH. The eluate was dried over a N2 flow, and the dried sample was reconstituted in 30 μL of AlphaLISA assay buffer. Aβ40 was determined by an AlphaLISA assay (Perkin-Elmer). In a white 96-well, half area microplate (Perkin-Elmer cat. no. 6005561), 20 μL of the reconstituted sample were mixed with 5 μL of biotinylated BAP-24 (specific for C-terminus of Aβ40) (Brockhaus, M.; Onmberg, J.; Rohrig, S.; Loetscher, H.; Wittenburg, N.; Baumeister, R.; Jacobsen, H.; Haass, C. Caspasemediated cleavage is not required for the activity of presenilins in amyloidogenesis and NOTCH signaling. NeuroReport 1998, 9, 1481-1486.) stock=4.4 mg/mL, f.c.5.5 μg/mL), and 5 μL 252Q6 acceptor beads (252Q6 antibody, Invitrogen AMB0062) had been previously conjugated with AlphaLISA Acceptor beads (Perkin-Elmer cat. no. 6772002); final dilution 1:500). The mix was incubated for 1 h at RT in the dark. Then 20 μL of Streptavin-coated Donor Beads (Perkin-Elmer cat. no. 6760002, final dilution 1:125) were added and this final mix was incubated in the dark for another 30 min at RT before RFU was measured in an AlphaScreen Reader (Perkin-Elmer Envision 2104). The value obtained for A40 in the treated animals was related to the value in the vehicle group and is given in %. Alternatively a commercial ELISA was used for Aβ40 determination (Wako ELISA: (“Human/Rat 3 Amyloid (40) ELISA kit Wako II”; cat nr. 294-64701) following the manufacture's instruction. Also here the Aβ-lowering efficacy was calculated as percentage of the vehicle group.

SMILES	response vs control in vivo at 30 mg/kg
Cc1cc(C#N)cnc1C(=O)Nc1ccc(F)c([C@@]2(C)N=C(N)C(C)(C)[S@]3(=O)=NCC[C@H]23)c1 [Example 1BA, N-(3-((3aR,4R,8S)-6-amino-4,7,7-trimethyl-8-oxido-3,3a,4,7-tetrahydro-2H-isothiazolo[1,5-a][1,4]thiazin-4-yl)-4-fluorophenyl)-5-cyano-3-methylpicolinamide]	73%
CC1(C)C(N)=N[C@](C)(c2cc(NC(=O)c3ccc(F)cn3)ccc2F)[C@@H]2CCN=[S@@]21=O [Example 17AB, N-(3-((3aS,4R,8R)-6-amino-4,7,7-trimethyl-8-oxido-3,3a,4,7-tetrahydro-2H-isothiazolo[1,5-a][1,4]thiazin-4-yl)-4-fluorophenyl)-5-fluoropicolinamide]	40%
Cc1cc(C#N)cnc1C(=O)Nc1ccc(F)c([C@@]2(C)N=C(N)C(C)(C)[S@@]3(=O)=NCC[C@@H]23)c1 [Example 1AB, N-(3-((3aS,4R,8R)-6-amino-4,7,7-trimethyl-8-oxido-3,3a,4,7-tetrahydro-2H-isothiazolo[1,5-a][1,4]thiazin-4-yl)-4-fluorophenyl)-5-cyano-3-methylpicolinamide]	14%

Molecular target: T1, BACE1 (Homo sapiens, UniProt P56817)
T1 construct: endogenous in cells; host or cells: HEK293 APP cells
Assay: Cellular Aβ-lowering assay (Abeta 40 AlphaLISA, HEK293 APP cells)
Assay type: cell-based
Details: 18-20 hrs incubation, Aβ 40 in culture supernatants, read-out: BACE1 cell act. Aβ40 IC50
Method: Cellular Aβ-Lowering Assay:
The Abeta 40 AiphaLISA Assay can be used. The HEK293 APP cells were seeded in 96 well Microtiter plates in cell culture medium (Iscove's, plus 10% (v/v) fetal bovine serum, penicillin/streptomycin) to about 80% confluency and the compounds were added at a 3× concentration in ⅓ volume of culture medium (final DMSO concentration was kept at 1% v/v). After 18-20 hrs incubation at 37° C. and 5% CO2 in a humidified incubator, the culture supernatants were harvested for the determination of Aβ 40 concentrations using Perkin-Elmer Human Amyloid beta 1-40 (high specificity) Kit (Cat # AL275C).
In a Perkin-Elmer White Optiplate-384 (Cat #6007290), 2 ul culture supernatants were combined with 2 μl of a 10× AlphaLISA Anti-hABAcceptor beads+Biotinylated Antibody Anti-AD 1-40 Mix (50 μg/mL/5 nM). After 1 hour room temperature incubation, 16 μl of a 1.25× preparation of Streptavidin (SA) Donor beads (25 μg/mL) were added and incubated for 30 minutes in the Dark. Light Emission at 615 nm was then recorded using EnVision-Alpha Reader. Levels of Aβ 40 in the culture supernatants were calculated as percentage of maximum signal (cells treated with 1% DMSO without inhibitor). The IC50 values were calculated using the Excel XLfit software.

T1 sequence (P56817 46-501): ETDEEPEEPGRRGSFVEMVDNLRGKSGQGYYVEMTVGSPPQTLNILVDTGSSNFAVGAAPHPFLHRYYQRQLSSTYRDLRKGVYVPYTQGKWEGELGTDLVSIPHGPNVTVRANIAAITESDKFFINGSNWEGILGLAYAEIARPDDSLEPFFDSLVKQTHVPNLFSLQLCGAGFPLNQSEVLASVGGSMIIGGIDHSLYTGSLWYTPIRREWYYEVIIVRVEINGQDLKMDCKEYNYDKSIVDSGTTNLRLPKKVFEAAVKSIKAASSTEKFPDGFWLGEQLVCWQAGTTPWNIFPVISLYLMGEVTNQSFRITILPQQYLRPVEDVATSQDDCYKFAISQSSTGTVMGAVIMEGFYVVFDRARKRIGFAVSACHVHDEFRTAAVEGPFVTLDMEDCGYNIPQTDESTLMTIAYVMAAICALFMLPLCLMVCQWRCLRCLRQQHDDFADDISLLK

IC50	SMILES
3.6 nM	Cc1cc(C#N)cnc1C(=O)Nc1ccc(F)c([C@@]2(C)N=C(N)C(C)(C)[S@]3(=O)=NCC[C@H]23)c1 [Example 1BA, N-(3-((3aR,4R,8S)-6-amino-4,7,7-trimethyl-8-oxido-3,3a,4,7-tetrahydro-2H-isothiazolo[1,5-a][1,4]thiazin-4-yl)-4-fluorophenyl)-5-cyano-3-methylpicolinamide]
0.3 nM	CC1(C)C(N)=N[C@](C)(c2cc(NC(=O)c3ccc(F)cn3)ccc2F)[C@@H]2CCN=[S@@]21=O [Example 17AB, N-(3-((3aS,4R,8R)-6-amino-4,7,7-trimethyl-8-oxido-3,3a,4,7-tetrahydro-2H-isothiazolo[1,5-a][1,4]thiazin-4-yl)-4-fluorophenyl)-5-fluoropicolinamide]
0.09 nM	Cc1cc(C#N)cnc1C(=O)Nc1ccc(F)c([C@@]2(C)N=C(N)C(C)(C)[S@@]3(=O)=NCC[C@@H]23)c1 [Example 1AB, N-(3-((3aS,4R,8R)-6-amino-4,7,7-trimethyl-8-oxido-3,3a,4,7-tetrahydro-2H-isothiazolo[1,5-a][1,4]thiazin-4-yl)-4-fluorophenyl)-5-cyano-3-methylpicolinamide]
12.3 nM	Cc1cc(C#N)ccc1C(=O)Nc1ccc(F)c([C@@]2(C)N=C(N)C(C)(C)[S@@]3(=O)=NCC[C@@H]23)c1 [Example 9AB, N-(3-((3aS,4R,8R)-6-amino-4,7,7-trimethyl-8-oxido-3,3a,4,7-tetrahydro-2H-isothiazolo[1,5-a][1,4]thiazin-4-yl)-4-fluorophenyl)-4-cyano-2-methylbenzamide]
0.2 nM	CC1(C)C(N)=N[C@](C)(c2cc(NC(=O)c3ccc(C#N)cn3)ccc2F)[C@@H]2CCN=[S@@]21=O [Example 16AB, N-(3-((3aS,4R,8R)-6-amino-4,7,7-trimethyl-8-oxido-3,3a,4,7-tetrahydro-2H-isothiazolo[1,5-a][1,4]thiazin-4-yl)-4-fluorophenyl)-5-cyanopicolinamide]
0.2 nM	CC1(C)C(N)=N[C@](C)(c2cc(NC(=O)c3ccc(Cl)cn3)ccc2F)[C@@H]2CCN=[S@@]21=O [Example 18AB, N-(3-((3aS,4R,8R)-6-amino-4,7,7-trimethyl-8-oxido-3,3a,4,7-tetrahydro-2H-isothiazolo[1,5-a][1,4]thiazin-4-yl)-4-fluorophenyl)-5-chloropicolinamide]
0.4 nM	Cc1ccc(C(=O)Nc2ccc(F)c([C@@]3(C)N=C(N)C(C)(C)[S@@]4(=O)=NCC[C@@H]34)c2)nc1 [Example 20AB, N-(3-((3aS,4R,8R)-6-amino-4,7,7-trimethyl-8-oxido-3,3a,4,7-tetrahydro-2H-isothiazolo[1,5-a][1,4]thiazin-4-yl)-4-fluorophenyl)-5-methylpicolinamide]
0.7 nM	COc1ccc(C(=O)Nc2ccc(F)c([C@@]3(C)N=C(N)C(C)(C)[S@@]4(=O)=NCC[C@@H]34)c2)nc1 [Example 24AB, N-(3-((3aS,4R,8R)-6-amino-4,7,7-trimethyl-8-oxido-3,3a,4,7-tetrahydro-2H-isothiazolo[1,5-a][1,4]thiazin-4-yl)-4-fluorophenyl)-5-methoxypicolinamide]

The next lines start with the compound.

SMILES	IC50
Cc1cc(OC(F)F)cnc1C(=O)Nc1ccc(F)c([C@@]2(C)N=C(N)C(C)(C)[S@@]3(=O)=NCC[C@@H]23)c1 [Example 11AB, N-(3-((3aS,4R,8R)-6-amino-4,7,7-trimethyl-8-oxido-3,3a,4,7-tetrahydro-2H-isothiazolo[1,5-a][1,4]thiazin-4-yl)-4-fluorophenyl)-5-(difluoromethoxy)-3-methylpicolinamide]	0.2 nM
CC1(C)C(N)=N[C@](C)(c2cc(NC(=O)c3ccc(OC(F)F)cn3)ccc2F)[C@@H]2CCN=[S@@]21=O [Example 5AB, N-(3-((3aS,4R,8R)-6-amino-4,7,7-trimethyl-8-oxido-3,3a,4,7-tetrahydro-2H-isothiazolo[1,5-a][1,4]thiazin-4-yl)-4-fluorophenyl)-5-(difluoromethoxy)picolinamide]	0.6 nM
CC1(C)C(N)=N[C@](C)(c2cc(NC(=O)c3ccc(OCC(F)F)cn3)ccc2F)[C@@H]2CCN=[S@@]21=O [Example 10AB, N-(3-((3aS,4R,8R)-6-amino-4,7,7-trimethyl-8-oxido-3,3a,4,7-tetrahydro-2H-isothiazolo[1,5-a][1,4]thiazin-4-yl)-4-fluorophenyl)-5-(2,2-difluoroethoxy)picolinamide]	2.2 nM
CC1(C)C(N)=N[C@](C)(c2cc(NC(=O)c3ccc(OCC(F)(F)C(F)F)cn3)ccc2F)[C@@H]2CCN=[S@@]21=O [Example 12AB, N-(3-((3aS,4R,8R)-6-amino-4,7,7-trimethyl-8-oxido-3,3a,4,7-tetrahydro-2H-isothiazolo[1,5-a][1,4]thiazin-4-yl)-4-fluorophenyl)-5-(2,2,3,3-tetrafluoropropoxy)picolinamide]	1.4 nM
Cc1ncc(C(=O)Nc2ccc(F)c([C@@]3(C)N=C(N)C(C)(C)[S@@]4(=O)=NCC[C@@H]34)c2)cn1 [Example 21AB, N-(3-((3aS,4R,8R)-6-amino-4,7,7-trimethyl-8-oxido-3,3a,4,7-tetrahydro-2H-isothiazolo[1,5-a][1,4]thiazin-4-yl)-4-fluorophenyl)-2-methylpyrimidine-5-carboxamide]	914 nM
CC1(C)C(N)=N[C@](C)(c2cc(NC(=O)c3nn(C(F)F)cc3Cl)ccc2F)[C@@H]2CCN=[S@@]21=O [Example 6AB, N-(3-((3aS,4R,8R)-6-amino-4,7,7-trimethyl-8-oxido-3,3a,4,7-tetrahydro-2H-isothiazolo[1,5-a][1,4]thiazin-4-yl)-4-fluorophenyl)-4-chloro-1-(difluoromethyl)-1H-pyrazole-3-carboxamide]	1.1 nM
CC1(C)C(N)=N[C@](C)(c2cc(NC(=O)c3ncc(C(F)(F)F)cc3Cl)ccc2F)[C@@H]2CCN=[S@@]21=O [Example 8AB, N-(3-((3aS,4R,8R)-6-amino-4,7,7-trimethyl-8-oxido-3,3a,4,7-tetrahydro-2H-isothiazolo[1,5-a][1,4]thiazin-4-yl)-4-fluorophenyl)-3-chloro-5-(trifluoromethyl)picolinamide]	0.3 nM
Cc1cnc(C(=O)Nc2ccc(F)c([C@@]3(C)N=C(N)C(C)(C)[S@@]4(=O)=NCC[C@@H]34)c2)c(C)c1 [Example 23AB, N-(3-((3aS,4R,8R)-6-amino-4,7,7-trimethyl-8-oxido-3,3a,4,7-tetrahydro-2H-isothiazolo[1,5-a][1,4]thiazin-4-yl)-4-fluorophenyl)-3,5-dimethylpicolinamide]	0.2 nM
CC1(C)C(N)=N[C@](C)(c2cc(NC(=O)c3ncc(F)cc3F)ccc2F)[C@@H]2CCN=[S@@]21=O [Example 19AB, N-(3-((3aS,4R,8R)-6-amino-4,7,7-trimethyl-8-oxido-3,3a,4,7-tetrahydro-2H-isothiazolo[1,5-a][1,4]thiazin-4-yl)-4-fluorophenyl)-3,5-difluoropicolinamide]	1.3 nM
